# Measured values as given in patent US8653089B2, “Heterocyclic compounds and methods of use” (F. Hoffmann-La Roche AG, priority 2011, dated 2014).
# Key:
# p110 delta = biological target: T1, p110 delta (Homo sapiens, UniProt O00329); experiment: PI3K isoform inhibition assay (fluorescence polarization), p110 delta; assay type: biochemical; conditions: p110 delta binding IC50, selected compounds from Table 1
# T1 construct: purchased Upstate Group, Millipore; Dundee, UK
# Method: PI3K enzymatic activity was assayed by measuring the amount of product phosphatidylinositol 3,4,5-phosphate (PIP3) formed from substrate 4,5 phosphatidylinositol 4,5-phosphate (PIP2) using a fluorescence polarization displacement assay. The decrease in fluorescence polarization of a fluorescent PIP3 probe is measured as it is displaced from a PIP3-binding protein GRP-1detector by PI3K-catalyzed product. Assays were conducted in 384-well black Proxiplates in the presence of 10 mM Tris (pH 7.5), 50 mM NaCl, 4 mM MgCl2, 5% glycerol, 25 μM ATP, 10 μM PIP2 (Echelon Biosciences), 0.05% 3-[(3-cholamidopropyl)dimethylammonio]-1-propanesulfonate, 1 mM dithiothreitol, and 2% DMSO. The kinase reactions were initiated by the addition of 40 ng/mL p110α/p85α, 300 ng/mL p110β/p85α, 40 ng/mL p110γ, or 40 ng/mL p110δ/p85α (Upstate Group, Millipore; Dundee, UK), and 10 μM PIP2 (Echelon Biosciences) to the wells. The reactions were stopped at timepoints that yielded a fixed change in fluorescence polarization consistent with initial rate conditions (typically 30 minutes), by the addition of 12.5 mM EDTA, 100 nM GRP-1 detector, and 5 nM tetramethylrhodamine-labeled PIP3 (TAMRA-PIP3; Echelon Biosciences). After 60 minutes of incubation at room temperature to allow equilibration of labeled and unlabeled PIP3 binding, the parallel and perpendicular components of the fluorescence emissions from each sample were measured at an excitation wavelength of 530 nm and an emission wavelength of 590 nm using an Envision fluorescent plate reader with a rhodamine filter (PerkinElmer Life and Analytical Sciences; Wellesley, Mass.). The assay is capable of detecting 0.1-2.0 μM PIP3 product. The IC50 values were obtained by fitting the dose-dependent inhibition data to a 4-parameter equation using Assay Explorer software (MDL, San Ramon, Calif.). […]
# (§1) Recombinant PI3K p110 isoforms alpha, beta, and delta may be prepared and purified according to US 2008/0275067 from recombinant PI3K heterodimeric complexes consisting of a p110 catalytic subunit and a p85 regulatory subunit overexpressed using the BAC-TO-BAC® HT baculovirus expression system (GIBCO/BRL), and then purified for use in biochemical assays. The four Class I PI 3-kinases are cloned into baculovirus vectors as follows:
# p110 delta: A FLAG™-tagged (Eastman Kodak Co., U.S. Pat. No. 4,703,004; U.S. Pat. No. 4,782,137; U.S. Pat. No. 4,851,341) version of human p110.delta (Chantry et al., J. Biol. Chem. (1997) 272:19236-41) is subcloned using standard recombinant DNA techniques into the BamHI-XbaI site of the insect cell expression vector pFastbac HTb (Life Technologies, Gaithersburg, Md.), such that the clone is in frame with the His tag of the vector.
# p110 alpha = biological target: T2, p110 alpha (Homo sapiens, UniProt P42336); experiment: PI3K isoform inhibition assay, p110 alpha (delta/alpha selectivity); assay type: biochemical; conditions: delta/alpha selectivity ratio
# T2 construct: purchased Upstate Group, Millipore; Dundee, UK
# Method: PI3K enzymatic activity was assayed by measuring the amount of product phosphatidylinositol 3,4,5-phosphate (PIP3) formed from substrate 4,5 phosphatidylinositol 4,5-phosphate (PIP2) using a fluorescence polarization displacement assay. The decrease in fluorescence polarization of a fluorescent PIP3 probe is measured as it is displaced from a PIP3-binding protein GRP-1detector by PI3K-catalyzed product. Assays were conducted in 384-well black Proxiplates in the presence of 10 mM Tris (pH 7.5), 50 mM NaCl, 4 mM MgCl2, 5% glycerol, 25 μM ATP, 10 μM PIP2 (Echelon Biosciences), 0.05% 3-[(3-cholamidopropyl)dimethylammonio]-1-propanesulfonate, 1 mM dithiothreitol, and 2% DMSO. The kinase reactions were initiated by the addition of 40 ng/mL p110α/p85α, 300 ng/mL p110β/p85α, 40 ng/mL p110γ, or 40 ng/mL p110δ/p85α (Upstate Group, Millipore; Dundee, UK), and 10 μM PIP2 (Echelon Biosciences) to the wells. The reactions were stopped at timepoints that yielded a fixed change in fluorescence polarization consistent with initial rate conditions (typically 30 minutes), by the addition of 12.5 mM EDTA, 100 nM GRP-1 detector, and 5 nM tetramethylrhodamine-labeled PIP3 (TAMRA-PIP3; Echelon Biosciences). After 60 minutes of incubation at room temperature to allow equilibration of labeled and unlabeled PIP3 binding, the parallel and perpendicular components of the fluorescence emissions from each sample were measured at an excitation wavelength of 530 nm and an emission wavelength of 590 nm using an Envision fluorescent plate reader with a rhodamine filter (PerkinElmer Life and Analytical Sciences; Wellesley, Mass.). The assay is capable of detecting 0.1-2.0 μM PIP3 product. The IC50 values were obtained by fitting the dose-dependent inhibition data to a 4-parameter equation using Assay Explorer software (MDL, San Ramon, Calif.).
# Alternatively, inhibition of PI3K was determined in a radiometric assay using purified, recombinant enzyme and ATP at a concentration of 1 uM. The Formula I compound was serially diluted in 100% DMSO. The kinase reaction was incubated for 1 h at room temperature, and the reaction was terminated by the addition of PBS. IC50 values were subsequently determined using sigmoidal dose-response curve fit (variable slope).
# The same protocol may be used to establish IC50 values for p110α (alpha) PI3K binding.
# as §1
# p110 alpha: Similar to the method used for p110 delta, described above, a FLAG™-tagged version of p110 alpha (Volinia et al (1994) Genomics, 24(3):427-77) was subcloned in BamH1-HindIII sites of pFastbac HTb (Life Technologies) such that the clone was in frame with the His tag of the vector.
# [1] = tested on: CD69 expression on CD20 positive cells in human whole blood stimulated by anti-IgM; experiment: CD69 Whole Blood Assay; assay type: cell-based; conditions: concentration decreasing by 50% the percent CD69 positive cells that are also CD20 positive, 20 hours
# Source text: Human blood is obtained from healthy volunteers, with the following restrictions: 1 week drug-free, non-smokers. Blood (approximately 20 mls to test 8 compounds) is collected by venipuncture into Vacutainer tubes with sodium heparin.
# Cynomolgus monkey blood is obtained courtesy of the LAT group from monkeys not previously exposed to, or after a washout period from, chemical dosing. Additional cyno blood draws may be collected during the course of pharmacokinetic or toxicology studies. Blood (25-30 mls for naïve monkeys or 3-4 mls from monkeys on studies requiring repeated draws) is collected by venipuncture into Vacutainer tubes with sodium heparin.
# Solutions of Formula I compounds at 1000 or 2000 μM in PBS (20×), are diluted by three-fold serial dilutions in 10% DMSO in PBS for a nine point dose-response curve. An aliquot of 5.5 μl of each compound is added in duplicate to a 2 ml 96-well plate; 5.5 μl of 10% DMSO in PBS is added as control and no-stimulus wells. Human whole blood—HWB (100 μl) is added to each well. After mixing the plates are incubated at 37° C., 5% CO2, 100% humidity for 30 minutes. Goat F(ab′)2 anti-human IgM (10 μl of a 500 μg/ml solution, 50 μg/ml final) is added to each well (except the no-stimulus wells) with mixing and the plates are incubated for an additional 20 hours. At the end of the 20 hour incubation, samples are incubated with fluorescent labeled antibodies for 30 minutes, at 37° C., 5% CO2, 100% humidity. Include induced control, unstained and single stains for compensation adjustments and initial voltage settings. Samples are then lysed with Pharmingen Lyse according to the manufacturer's instructions. Samples are then transferred to a 96 well plate suitable to be run on the AMS 96 well system on the BD Calibur FACs machine. Data acquired and Mean Fluorescence Intensity values were obtained using Cell Quest Software. Results are initially analyzed by FACS analysis software (Flow Jo). […] The […] values are calculated by ActivityBase using Xlfit version 3, equation 201.
# T2 sequence (P42336 whole entry, canonical isoform): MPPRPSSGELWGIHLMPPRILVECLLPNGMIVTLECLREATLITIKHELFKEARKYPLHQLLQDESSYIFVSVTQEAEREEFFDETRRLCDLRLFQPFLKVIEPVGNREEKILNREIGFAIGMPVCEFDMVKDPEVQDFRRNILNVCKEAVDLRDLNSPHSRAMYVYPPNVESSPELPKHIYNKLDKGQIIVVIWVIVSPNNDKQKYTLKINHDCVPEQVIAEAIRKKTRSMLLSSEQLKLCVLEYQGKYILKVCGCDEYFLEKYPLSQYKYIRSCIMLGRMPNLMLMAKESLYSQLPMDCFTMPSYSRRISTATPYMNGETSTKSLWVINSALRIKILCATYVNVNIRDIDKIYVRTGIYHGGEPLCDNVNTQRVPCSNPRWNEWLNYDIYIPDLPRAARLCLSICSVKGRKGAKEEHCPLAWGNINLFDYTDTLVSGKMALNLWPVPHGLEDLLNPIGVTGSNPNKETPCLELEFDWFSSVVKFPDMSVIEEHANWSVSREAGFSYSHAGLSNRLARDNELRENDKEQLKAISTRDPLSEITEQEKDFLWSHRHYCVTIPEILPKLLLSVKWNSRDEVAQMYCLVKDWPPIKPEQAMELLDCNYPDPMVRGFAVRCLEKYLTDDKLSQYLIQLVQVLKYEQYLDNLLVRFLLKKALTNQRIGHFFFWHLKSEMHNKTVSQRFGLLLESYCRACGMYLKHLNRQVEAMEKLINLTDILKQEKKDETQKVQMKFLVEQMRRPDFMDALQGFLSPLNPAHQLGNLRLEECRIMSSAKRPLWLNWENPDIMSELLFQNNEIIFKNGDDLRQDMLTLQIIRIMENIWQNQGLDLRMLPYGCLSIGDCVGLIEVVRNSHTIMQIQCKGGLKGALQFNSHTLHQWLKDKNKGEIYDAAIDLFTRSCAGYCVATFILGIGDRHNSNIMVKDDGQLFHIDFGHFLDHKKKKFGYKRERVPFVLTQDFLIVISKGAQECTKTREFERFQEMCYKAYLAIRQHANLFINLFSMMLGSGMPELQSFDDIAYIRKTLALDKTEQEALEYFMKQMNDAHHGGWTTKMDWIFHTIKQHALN
# T2 sequence (P27986 whole entry partner, canonical isoform): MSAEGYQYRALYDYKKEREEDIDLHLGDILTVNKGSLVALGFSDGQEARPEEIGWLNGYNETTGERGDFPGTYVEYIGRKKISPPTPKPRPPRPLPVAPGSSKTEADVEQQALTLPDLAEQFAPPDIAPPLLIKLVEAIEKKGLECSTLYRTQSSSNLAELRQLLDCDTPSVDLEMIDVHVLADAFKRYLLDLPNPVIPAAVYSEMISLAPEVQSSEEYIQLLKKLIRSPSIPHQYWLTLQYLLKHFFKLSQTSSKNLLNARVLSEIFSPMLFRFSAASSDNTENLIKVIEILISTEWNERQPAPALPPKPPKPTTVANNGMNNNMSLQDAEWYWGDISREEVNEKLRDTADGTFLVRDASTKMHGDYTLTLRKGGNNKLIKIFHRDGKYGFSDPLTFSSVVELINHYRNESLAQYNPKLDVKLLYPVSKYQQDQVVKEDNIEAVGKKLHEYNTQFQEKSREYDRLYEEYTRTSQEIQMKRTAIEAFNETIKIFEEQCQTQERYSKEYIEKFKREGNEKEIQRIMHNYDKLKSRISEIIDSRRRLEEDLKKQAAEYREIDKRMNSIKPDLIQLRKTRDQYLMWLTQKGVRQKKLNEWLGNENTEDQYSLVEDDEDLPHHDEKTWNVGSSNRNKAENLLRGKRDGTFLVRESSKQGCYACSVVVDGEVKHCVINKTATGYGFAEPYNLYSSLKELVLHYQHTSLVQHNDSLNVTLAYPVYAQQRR
# T1 sequence (O00329 whole entry, canonical isoform): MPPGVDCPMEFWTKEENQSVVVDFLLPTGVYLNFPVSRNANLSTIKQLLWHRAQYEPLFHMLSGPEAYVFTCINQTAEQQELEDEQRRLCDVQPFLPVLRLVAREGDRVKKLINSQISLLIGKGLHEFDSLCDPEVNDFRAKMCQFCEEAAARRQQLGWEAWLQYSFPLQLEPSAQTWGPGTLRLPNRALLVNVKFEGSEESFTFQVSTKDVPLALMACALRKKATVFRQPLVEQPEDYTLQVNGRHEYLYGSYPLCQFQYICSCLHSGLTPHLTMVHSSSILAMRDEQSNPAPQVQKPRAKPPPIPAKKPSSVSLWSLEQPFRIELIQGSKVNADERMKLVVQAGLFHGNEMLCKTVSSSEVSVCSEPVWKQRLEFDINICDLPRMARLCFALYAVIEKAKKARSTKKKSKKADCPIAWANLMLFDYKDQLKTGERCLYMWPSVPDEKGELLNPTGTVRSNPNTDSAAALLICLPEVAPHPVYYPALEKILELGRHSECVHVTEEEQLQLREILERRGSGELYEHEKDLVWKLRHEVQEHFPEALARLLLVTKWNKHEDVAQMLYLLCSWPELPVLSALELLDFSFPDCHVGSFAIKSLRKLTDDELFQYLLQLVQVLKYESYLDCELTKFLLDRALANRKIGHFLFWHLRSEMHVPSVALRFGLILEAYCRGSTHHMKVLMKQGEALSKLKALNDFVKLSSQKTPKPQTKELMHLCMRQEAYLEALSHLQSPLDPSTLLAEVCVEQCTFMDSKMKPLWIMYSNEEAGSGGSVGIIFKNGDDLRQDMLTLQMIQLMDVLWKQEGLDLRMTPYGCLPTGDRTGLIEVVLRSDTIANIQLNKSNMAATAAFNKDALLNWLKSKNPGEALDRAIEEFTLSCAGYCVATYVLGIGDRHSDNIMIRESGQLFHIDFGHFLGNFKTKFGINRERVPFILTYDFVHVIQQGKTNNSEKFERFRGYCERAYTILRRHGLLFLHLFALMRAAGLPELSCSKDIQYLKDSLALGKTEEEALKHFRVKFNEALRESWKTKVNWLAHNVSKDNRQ
# T1 sequence (P27986 whole entry partner, canonical isoform): as the sequence (P27986 whole entry partner, canonical isoform) above
Structure (SMILES),IC50 (p110 delta) [nM],"IC50 p110 alpha/IC50 p110 delta (greater than or equal to, ≧) (p110 alpha)",IC50 [1] [nM]
"C[C@H](Nc1ncnc2[nH]cnc12)c1nc2ccccc2n1C1CCCOC1 (stereo partly drawn) [Example 128, N-((1S)-1-(1-(tetrahydro-2H-pyran-3-yl)-1H-benzo[d]imidazol-2-yl)ethyl)-9H-purin-6-amine]",36.2,≥ 58,–
"Nc1ncnc2c1ccn2Cc1nc2ccccc2n1-c1ccccc1 [Example 139, 7-((1-phenyl-1H-benzo[d]imidazol-2-yl)methyl)-7H-pyrrolo[2,3-d]pyrimidin-4-amine]",302,–,–
"C[C@H](Nc1ncnc2[nH]cnc12)c1nc2cccnc2n1-c1ccccc1 [Example 114, (S)—N-(1-(3-phenyl-3H-imidazo[4,5-b]pyridin-2-yl)ethyl)-9H-purin-6-amine]",20.1,≥ 104,83.4
"CC(Nc1ncnc2[nH]cnc12)c1oc2ccccc2c1-c1ccccc1 (stereo not shown) [Example 103, N-(1-(3-phenylbenzofuran-2-yl)ethyl)-9H-purin-6-amine]",33,≥ 64,–
"CC[C@H](Nc1ncnc2nc[nH]c12)c1nc2ccc(F)cc2n1-c1ccccc1 [Example 160, (S)—N-(1-(6-fluoro-1-phenyl-1H-benzo[d]imidazol-2-yl)propyl)-7H-purin-6-amine]",–,–,179
"C[C@H](Nc1ncnc2[nH]cnc12)c1nc2ccccc2n1C1CCN(C2COC2)CC1 [Example 129, (S)—N-(1-(1-(1-(oxetan-3-yl)piperidin-4-yl)-1H-benzo[d]imidazol-2-yl)ethyl)-9H-purin-6-amine]",63.4,≥ 33,–
"C[C@H](Nc1ncnc2sccc12)c1nc2ccccc2n1-c1ccccc1 [Example 143, (S)—N-(1-(1-phenyl-1H-benzo[d]imidazol-2-yl)ethyl)thieno[2,3-d]pyrimidin-4-amine]",87.9,≥ 24,–
"CC(Nc1ncnc2[nH]cnc12)c1nc2ccccc2n1-c1ccccc1 (racemic) [Example 102, N-(1-(1-phenyl-1H-benzo[d]imidazol-2-yl)ethyl)-9H-purin-6-amine]",9.1,≥ 230,–
"C[C@H](Nc1ncnc2[nH]cnc12)c1nc2cccc(F)c2n1-c1ccccc1 [Example 124, (S)—N-(1-(7-fluoro-1-phenyl-1H-benzo[d]imidazol-2-yl)ethyl)-9H-purin-6-amine]",–,–,67.1
"Cc1nn(Cc2nc3ccccc3n2-c2ccccc2)c2ncnc(N)c12 [Example 142, 3-methyl-1-((1-phenyl-1H-benzo[d]imidazol-2-yl)methyl)-1H-pyrazolo[3,4-d]pyrimidin-4-amine]",278,–,–
"C[C@H](Nc1ncnc2[nH]cnc12)c1nc2cccc(Cl)c2n1-c1ccccc1 [Example 138, (S)—N-(1-(7-chloro-1-phenyl-1H-benzo[d]imidazol-2-yl)ethyl)-9H-purin-6-amine]",–,–,87.6

# More lines, in order of falling IC50 (p110 delta), values ahead:
IC50 (p110 delta) [nM],"IC50 p110 alpha/IC50 p110 delta (greater than or equal to, ≧) (p110 alpha)",IC50 [1] [nM],Structure (SMILES)
189,≥ 11,–,"Nc1ncnc2c1ncn2Cc1nc2ccccc2n1-c1ccccc1 [Example 106, 9-((1-phenyl-1H-benzo[d]imidazol-2-yl)methyl)-9H-purin-6-amine]"
52.3,≥ 40,–,"CC(Nc1ncnc2[nH]cnc12)c1sc2ccccc2c1-c1ccccc1 (stereo not shown) [Example 101, N-(1-(3-phenylbenzo[b]thiophen-2-yl)ethyl)-9H-purin-6-amine]"
13.7,≥ 153,–,"CC(=O)N1CCC(n2c([C@H](C)Nc3ncnc4[nH]cnc34)nc3ccccc32)CC1 [Example 115, (S)-1-(4-(2-(1-(9H-purin-6-ylamino)ethyl)-1H-benzo[d]imidazol-1-yl)piperidin-1-yl)ethanone]"
4.46,≥ 470,–,"C[C@H](Nc1ncnc2[nH]cnc12)c1nc2c(Cl)cccc2n1-c1ccccc1 [Example 120, (S)—N-(1-(4-chloro-1-phenyl-1H-benzo[d]imidazol-2-yl)ethyl)-9H-purin-6-amine]"
1.59,≥ 1320,–,"CC[C@H](Nc1ncnc2[nH]cnc12)c1nc2ccccc2n1-c1ccccc1 [Example 119, (S)—N-(1-(1-phenyl-1H-benzo[d]imidazol-2-yl)propyl)-9H-purin-6-amine]"
0.854,≥ 2459,29.1,"C[C@H](Nc1ncnc2[nH]cnc12)c1nc2ccc(F)cc2n1-c1ccccc1 [Example 123, (S)—N-(1-(6-fluoro-1-phenyl-1H-benzo[d]imidazol-2-yl)ethyl)-9H-purin-6-amine]"
